Source: the NIST ThermoML archive (doi:10.1016/j.fluid.2015.03.031)

Assay: cn = amount concentration of the nth substance listed, in mol/dm3
Settings: 101 kPa, Liquid; for viscosity: Capillary tube (Ostwald / Ubbelohde) method; for mass density: Pycnometric method

NCCCC[C@H](N)C(=O)[O-].[K+] [potassium L-lysinate] + O
Settings | mass density, 298 K [kg/m3] | mass density, 308 K [kg/m3] | mass density, 313 K [kg/m3] | viscosity, 298 K [mPa·s] | viscosity, 308 K [mPa·s] | viscosity, 313 K [mPa·s]
c1 = 0.5 | 1038.6 | 1036.3 | 1030.7 | 1.162 | 0.9848 | 0.894
c1 = 1.5 | 1108.9 | 1107.5 | 1105.1 | 2.284 | 1.905 | 1.686
c1 = 2.5 | 1173.8 | 1171.1 | 1168.8 | 3.165 | 2.653 | 2.416
